Measurements published in patent US11691949B2, “Quinoline sulfonamide compounds and their use as antibacterial agents” (OTAGO INNOVATION LIMITED, priority 2017, dated 2023).
≈ marks a conversion by molar mass, not a printed value. Read-outs that look alike come from different tables or passages of the source.

Key:
Assay type in all cases: cell-based
S. uberis ATCC 19436 [1] = assay: MBC by Miles-Misra drop-plate method, S. uberis; settings: Streptococcus uberis
Description: (§1) Antibacterial susceptibility testing was performed in triplicate (biological) by measuring minimum inhibitory concentrations (MICs) by broth microdilution in 96-well flat bottom microtiter plates (ThermoFisher Scientific, New Zealand). S. uberis ATCC 19436, S. aureus ATCC 6538, or E. coli ATCC 10596 cells grown overnight were diluted to an OD600 of approximately 0.025, so that the final concentration of cells in the MIC assay was approximately 5×10^5 cfu/mL in media as follows: S. uberis; Todd Hewitt Broth (THB), S. aureus; Tryptic Soy Broth (TSB) and Cation Adjusted Muller Hinton Broth (CAMHB), and E. coli; Lysogeny Borth (LB) and CAMHB, before being dispensed into microtiter wells. As required additional sterile Zinc Sulphate (Heptahydrate) was supplemented into the media, so the final concentration was 50 μM. Test compounds were added to starting wells and two-fold serial dilutions were undertaken to generate a range of inhibitor concentrations at a final volume of 200 μl. Media and test compound-free (untreated) controls were included in each microtiter plate in triplicate. After 24 h incubation at 37° C. and 200 rpm, the OD600 of wells were read using a Varioskan Flash plate reader (ThermoFisher Scientific, New Zealand). The MIC was reported as the lowest concentration of the test compound for which no growth occurred, as determined by OD600 readings. The minimum bactericidal concentration (MBC) was determined using the Miles-Misra drop-plate method to measure the viability of cells in response to test compound challenge.

S. aureus ATCC 6538 [2] = assay: MIC by broth microdilution, S. aureus; settings: Staphylococcus aureus
How it was run: (§2)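 Overnight cultures diluted to ~5×10^5 cfu/mL final; S. aureus in TSB and CAMHB, E. coli in LB and CAMHB, zinc sulphate to 50 μM final as required; two-fold serial dilutions. MIC = lowest concentration with no growth by OD600 after 24 h, 37° C, 200 rpm. MBC by Miles-Misra drop-plate viability count.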

E. coli ATCC 10596 = assay: MIC by broth microdilution, E. coli; settings: Escherichia coli
How it was run: as §2

S. uberis ATCC 19436 [3] = assay: MIC by broth microdilution, S. uberis; settings: Streptococcus uberis
How it was run: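 The MIC against S. uberis ATCC 19436 was the lowest compound concentration showing no growth by OD600 after 24 h at 37° C. with 200 rpm shaking. Cultures grown overnight were adjusted to OD600 ~0.025 so wells held approximately 5×10^5 cfu/mL in THB. Two-fold dilution series were made at a final volume of 200 μl. Media and untreated controls were run in triplicate on each plate.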

E. coli ATCC 10536 = assay: MBC by Miles-Misra drop-plate method, E. coli; settings: Escherichia coli
Description: as §1

S. aureus ATCC 6538 [4] = assay: MBC by Miles-Misra drop-plate method, S. aureus; settings: Staphylococcus aureus
Description: as §1

[5] = ATCC19436, No Zinc, read-out: S. uberis ATCC 19436 MBC
[6] = ATCC19436, Zinc (50 μM), read-out: S. uberis ATCC 19436 MBC
[7] = ATCC6538, No Zinc, read-out: S. aureus ATCC 6538 MIC
[8] = ATCC6538, Zinc (50 μM), read-out: S. aureus ATCC 6538 MIC
[9] = ATCC 10536 / ATCC 10596, No Zinc, read-out: E. coli ATCC 10536 MIC
[10] = ATCC 10536 / ATCC 10596, Zinc (50 μM), read-out: E. coli ATCC 10536 MIC
[11] = ATCC19436, No Zinc, read-out: S. uberis ATCC 19436 MIC
[12] = ATCC19436, Zinc (50 μM), read-out: S. uberis ATCC 19436 MIC
[13] = ATCC10536, No Zinc, read-out: E. coli ATCC 10536 MBC
[14] = ATCC10536, Zinc (50 μM), read-out: E. coli ATCC 10536 MBC
[15] = ATCC6538, No Zinc, read-out: S. aureus ATCC 6538 MBC
[16] = ATCC6538, Zinc (50 μM), read-out: S. aureus ATCC 6538 MBC

| MIC (S. aureus ATCC 6538 [2]; [7]) | MIC (S. aureus ATCC 6538 [2]; [8]) | MIC (E. coli ATCC 10596; [9]) | MIC (E. coli ATCC 10596; [10]) | MIC (S. uberis ATCC 19436 [3]; [11]) | MIC (S. uberis ATCC 19436 [3]; [12]) | SMILES | MBC (S. uberis ATCC 19436 [1]; [5]) | MBC (S. uberis ATCC 19436 [1]; [6]) | MBC (E. coli ATCC 10536; [13]) | MBC (E. coli ATCC 10536; [14]) | MBC (S. aureus ATCC 6538 [4]; [15]) | MBC (S. aureus ATCC 6538 [4]; [16]) | further results |
| --- | --- | --- | --- | --- | --- | --- | --- | --- | --- | --- | --- | --- | --- |
| 64 µg/mL (≈ 126 µM) | 64 µg/mL (≈ 126 µM) | > 256 µg/mL | > 256 µg/mL | 32 µg/mL (≈ 62.9 µM) | 2 µg/mL (≈ 3.93 µM) | O=S(=O)(Nc1cccc2ccc(CNCCCN3CCOCC3)nc12)c1ccc(C(F)(F)F)cc1 [ZDR116, N-(2-(((3-Morpholinopropyl)amino)methyl)quinolin-8-yl)-4-(trifluoromethyl)benzenesulfonamide] | 64 µg/mL (≈ 126 µM) | 2 µg/mL (≈ 3.93 µM) | > 256 µg/mL | > 256 µg/mL | 128 µg/mL (≈ 252 µM) | > 256 µg/mL | – |
| 16 µg/mL (≈ 36.7 µM) | 16 µg/mL (≈ 36.7 µM) | > 256 µg/mL | > 256 µg/mL | 32 µg/mL (≈ 73.3 µM) | 0.5 µg/mL (≈ 1.15 µM) | CC(=O)N/N=C/c1ccc2cccc(NS(=O)(=O)c3ccc(C(F)(F)F)cc3)c2n1 [ZDR120, (E/Z)—N-(2-((2-Acetylhydrazineylidene)methyl)quinolin-8-yl)-4-(trifluoromethyl)benzenesulfonamide] | > 256 µg/mL | 1 µg/mL (≈ 2.29 µM) | > 256 µg/mL | > 256 µg/mL | > 256 µg/mL | > 256 µg/mL | – |
| 16 µg/mL (≈ 32 µM) | 16 µg/mL (≈ 32 µM) | > 256 µg/mL | > 256 µg/mL | 32 µg/mL (≈ 64.1 µM) | 2 µg/mL (≈ 4 µM) | O=C(N/N=C/c1ccc2cccc(NS(=O)(=O)c3ccc(C(F)(F)F)cc3)c2n1)c1ccncc1 [ZDR122, (E)-N-(2-((2-Isonicotinoylhydrazneylidene)methyl)quinolin-8-yl)-4-(trifluoromethyl)benzenesulfonamide] | 128 µg/mL (≈ 256 µM) | 32 µg/mL (≈ 64.1 µM) | > 256 µg/mL | > 256 µg/mL | 32 µg/mL (≈ 64.1 µM) | 128 µg/mL (≈ 256 µM) | – |

The next lines start with the compound.

| SMILES | MIC (S. aureus ATCC 6538 [2]; [7]) | MIC (S. aureus ATCC 6538 [2]; [8]) | MIC (E. coli ATCC 10596; [9]) | MIC (E. coli ATCC 10596; [10]) | MIC (S. uberis ATCC 19436 [3]; [11]) | MIC (S. uberis ATCC 19436 [3]; [12]) | MBC (S. uberis ATCC 19436 [1]; [5]) | MBC (S. uberis ATCC 19436 [1]; [6]) | MBC (E. coli ATCC 10536; [13]) | MBC (E. coli ATCC 10536; [14]) | MBC (S. aureus ATCC 6538 [4]; [15]) | MBC (S. aureus ATCC 6538 [4]; [16]) | further results |
| --- | --- | --- | --- | --- | --- | --- | --- | --- | --- | --- | --- | --- | --- |
| CN1CCN(CCCNCc2ccc3cccc(NS(=O)(=O)c4ccc(C(F)(F)F)cc4)c3n2)CC1 [ZDR117, N-(2-(((3-(4-Methylpiperazin-1-yl)propyl)amino)methyl)quinolin-8-yl)-4-(trifluoromethyl)benzenesulfonamide di-trifluoroacetate] | – | – | – | – | – | – | – | – | – | – | – | – | MBC (S. uberis ATCC 19436 [1]; ATCC19436, read-out: S. uberis ATCC 19436 MBC, No Zinc): 16 µg/mL (≈ 30.7 µM); MBC (S. uberis ATCC 19436 [1]; ATCC19436, read-out: S. uberis ATCC 19436 MBC, Zinc (50 μM)): 4 µg/mL (≈ 7.67 µM); MIC (S. aureus ATCC 6538 [2]; ATCC6538, read-out: S. aureus ATCC 6538 MIC, No Zinc): 64 µg/mL (≈ 123 µM); MIC (S. aureus ATCC 6538 [2]; ATCC6538, read-out: S. aureus ATCC 6538 MIC, Zinc (50 μM)): 64 µg/mL (≈ 123 µM); MIC (E. coli ATCC 10596; ATCC 10536 / ATCC 10596, read-out: E. coli ATCC 10536 MIC, No Zinc): 128 µg/mL (≈ 245 µM); MIC (E. coli ATCC 10596; ATCC 10536 / ATCC 10596, read-out: E. coli ATCC 10536 MIC, Zinc (50 μM)): 32 µg/mL (≈ 61.3 µM); MIC (S. uberis ATCC 19436 [3]; ATCC19436, read-out: S. uberis ATCC 19436 MIC, No Zinc): 16 µg/mL (≈ 30.7 µM); MIC (S. uberis ATCC 19436 [3]; ATCC19436, read-out: S. uberis ATCC 19436 MIC, Zinc (50 μM)): 4 µg/mL (≈ 7.67 µM); MBC (E. coli ATCC 10536; ATCC10536, read-out: E. coli ATCC 10536 MBC, No Zinc): 256 µg/mL (≈ 491 µM); MBC (E. coli ATCC 10536; ATCC10536, read-out: E. coli ATCC 10536 MBC, Zinc (50 μM)): 64 µg/mL (≈ 123 µM); MBC (S. aureus ATCC 6538 [4]; ATCC6538, read-out: S. aureus ATCC 6538 MBC, No Zinc): 64 µg/mL (≈ 123 µM); MBC (S. aureus ATCC 6538 [4]; ATCC6538, read-out: S. aureus ATCC 6538 MBC, Zinc (50 μM)): 64 µg/mL (≈ 123 µM) |
| O=S(=O)(Nc1cccc2ccc(/C=N/NC(=S)NCCN3CCOCC3)nc12)c1ccc(C(F)(F)F)cc1 [ZDR119, (E)-N-(2-Morpholinoethyl)-2-((8-((4-(trifluoromethyl)phenyl)sulfonamido)quinolin-2-yl)methylene)hydrazine-1-carbothioamide] | 4 µg/mL (≈ 7.06 µM) | 4 µg/mL (≈ 7.06 µM) | > 256 µg/mL | > 256 µg/mL | 4 µg/mL (≈ 7.06 µM) | 0.125 µg/mL (≈ 0.221 µM) | 16 µg/mL (≈ 28.2 µM) | 1 µg/mL (≈ 1.76 µM) | > 256 µg/mL | > 256 µg/mL | > 256 µg/mL | 32 µg/mL (≈ 56.5 µM) | – |
| O=C(N/N=C/c1ccc2cccc(NS(=O)(=O)c3ccc(C(F)(F)F)cc3)c2n1)c1cccnc1 [ZDR121, (E)-N-(2-((2-Nicotnoylhydrazineylidene)methyl)quinolin-8-yl)-4-(trifluoromethyl)benzenesulfonamide] | 16 µg/mL (≈ 32 µM) | 16 µg/mL (≈ 32 µM) | > 256 µg/mL | > 256 µg/mL | 32 µg/mL (≈ 64.1 µM) | 2 µg/mL (≈ 4 µM) | 256 µg/mL (≈ 513 µM) | 32 µg/mL (≈ 64.1 µM) | > 256 µg/mL | > 256 µg/mL | 64 µg/mL (≈ 128 µM) | 256 µg/mL (≈ 513 µM) | – |
